Consider 29 compounds from article PMC9027111, “Morphing Natural Product Platensimycin via Heck, Sonogashira, and One-Pot Sonogashira/Cycloaddition Reactions to Produce Antibiotics with In Vivo Activity” (Antibiotics, 2022).

Values after ≈ are worked out from the molar mass of the structure shown.

The test system of one assay is MSSA 1. Nature of the assay: MIC determination (LB agar dilution), clinical MSSA strain 1. It counts as cell-based. Conditions: Staphylococcus aureus, at least two replicates. The method, then:
(§1) All of the tested compounds were prepared to different concentrations with methanol, and 150 μL of the respective methanol solution was used to mix with 15 mL LB (Luria–Bertani) medium with 1% agar in each Petri dish. Linezolid and PTM were used as reference compounds for comparison. In vitro bioassay for compounds was carried out using clinical strains of S. aureus, E. coli, and Klebsilla pneumoniae. The bacteria were cultivated in LB medium and incubated for 16 h at 37 °C, 250 rpm. The resulting bacteria were diluted to approximate 0.25 at OD600, which were further diluted 10_4-fold. The diluted bacteria (2 μL) were added to Petri dish containing the respective compounds. The resulting Petri dishes were incubated for 16 h at 37 °C. The determination of MIC is the concentration of Petri dishes with no visible growth of bacteria.
Background: In agar dilution the substance is mixed into plates at graded concentrations.

A further assay relates to MRSA 3. The assay is described as follows: MIC determination (LB agar dilution), clinical MRSA strain 3. It counts as cell-based. The note with it: Staphylococcus aureus, at least two replicates. The method, then: as §1
Another assay has as its system S. aureus ATCC 29213. Nature of the assay: MIC determination (LB agar dilution), S. aureus ATCC 29213. It counts as cell-based. The note with it: Staphylococcus aureus, ATCC29213, at least two replicates. The method, then: as §1
The test system of another assay is MRSA 4. Nature of the assay: MIC determination (LB agar dilution), clinical MRSA strain 4. The class given is cell-based. The note with it: Staphylococcus aureus, at least two replicates. The method, then: as §1
A further assay concerns MSSA 2. The assay is described as follows: MIC determination (LB agar dilution), clinical MSSA strain 2. It counts as cell-based. Conditions: Staphylococcus aureus, at least two replicates. The method, then:
as §1

A further assay deals with MRSA. The class given is in vivo. The note with it: 50 mg/kg intraperitoneal at 1 h and 5 h after infection, tracked 7 days, n = 5.

The term MIC denotes the smallest concentration in the dilution series that meets the test's criterion for growth inhibition. Read a low MIC as inhibition by little substance. For the compound `COC(=O)C=CC1=CC23CC4CC(OC4(C)C2)C3C(C)(CCC(=O)Nc2c(O)ccc(C(=O)O)c2O)C1=O` (stereo not drawn) [A1], the MIC with MSSA 1, in the assay with MRSA 3, against S. aureus ATCC 29213, in the assay with MRSA 4 and in the assay on MSSA 2 was 2 µg/mL (≈ 3.81 µM) in each case.

On to `CC12CC34C=C(C=CC(=O)OCCO)C(=O)C(C)(CCC(=O)Nc5c(O)ccc(C(=O)O)c5O)C3C(CC1C4)O2` (stereo not drawn) [A2], for which the minimum inhibitory concentration (MIC) against MSSA 1, in the assay on MRSA 3, in the assay with S. aureus ATCC 29213, in the assay with MRSA 4 and with MSSA 2 was 16 µg/mL (≈ 28.8 µM) in each case.

Turning to `CCCCOC(=O)C=CC1=CC23CC4CC(OC4(C)C2)C3C(C)(CCC(=O)Nc2c(O)ccc(C(=O)O)c2O)C1=O` (stereo not drawn) [A3], the MIC in the assay on MSSA 1, with MRSA 3, against S. aureus ATCC 29213, against MRSA 4 and with MSSA 2 was 1 µg/mL (≈ 1.76 µM) each time.

For the compound `CC12CC34C=C(C=CC(N)=O)C(=O)C(C)(CCC(=O)Nc5c(O)ccc(C(=O)O)c5O)C3C(CC1C4)O2` (stereo not drawn) [A6], the MIC against MSSA 1, against MRSA 3, with S. aureus ATCC 29213, against MRSA 4 and in the assay with MSSA 2 was 64 µg/mL (≈ 125 µM) throughout.

Regarding `CN(C)C(=O)C=CC1=CC23CC4CC(OC4(C)C2)C3C(C)(CCC(=O)Nc2c(O)ccc(C(=O)O)c2O)C1=O` (stereo not drawn) [A7], the MIC against MSSA 1, with MRSA 3, against S. aureus ATCC 29213, against MRSA 4 and with MSSA 2 was 16 µg/mL (≈ 29.7 µM) in each case.

In the case of `CC(C)NC(=O)C=CC1=CC23CC4CC(OC4(C)C2)C3C(C)(CCC(=O)Nc2c(O)ccc(C(=O)O)c2O)C1=O` (stereo not drawn) [A8], the MIC against MSSA 1, with MRSA 3, in the assay with S. aureus ATCC 29213, against MRSA 4 and against MSSA 2 was 32 µg/mL (≈ 57.9 µM) throughout.

Consider `CC(C)(C)NC(=O)C=CC1=CC23CC4CC(OC4(C)C2)C3C(C)(CCC(=O)Nc2c(O)ccc(C(=O)O)c2O)C1=O` (stereo not drawn) [A9], for which the MIC in the assay with MSSA 1, against MRSA 3, in the assay with S. aureus ATCC 29213, against MRSA 4 and in the assay on MSSA 2 was 8 µg/mL (≈ 14.1 µM) in each case.

For the compound `C#CC1=CC23CC4CC(OC4(C)C2)C3C(C)(CCC(=O)Nc2c(O)ccc(C(=O)O)c2O)C1=O` (stereo not drawn) [B1], the MIC against MSSA 1, with MRSA 3, in the assay on S. aureus ATCC 29213, against MRSA 4 and against MSSA 2 was 8 µg/mL (≈ 17.2 µM) throughout.

Turning to `CCCCC#CC1=CC23CC4CC(OC4(C)C2)C3C(C)(CCC(=O)Nc2c(O)ccc(C(=O)O)c2O)C1=O` (stereo not drawn) [B2], the MIC in the assay with MSSA 1, in the assay with MRSA 3, with S. aureus ATCC 29213, against MRSA 4 and with MSSA 2 was 1 µg/mL (≈ 1.92 µM) each time.

As for `CC(C)(C)C#CC1=CC23CC4CC(OC4(C)C2)C3C(C)(CCC(=O)Nc2c(O)ccc(C(=O)O)c2O)C1=O` (stereo not drawn) [B3], the MIC in the assay with MSSA 1, with MRSA 3, in the assay with S. aureus ATCC 29213, against MRSA 4 and in the assay on MSSA 2 was 1 µg/mL (≈ 1.92 µM) throughout.

Regarding `CC12CC34C=C(C#CC5CC5)C(=O)C(C)(CCC(=O)Nc5c(O)ccc(C(=O)O)c5O)C3C(CC1C4)O2` (stereo not drawn) [B4], the MIC against MSSA 1, in the assay on MRSA 3, against S. aureus ATCC 29213, with MRSA 4 and against MSSA 2 was 1 µg/mL (≈ 1.98 µM) in each case.

Regarding `CCCCCC#CC1=CC23CC4CC(OC4(C)C2)C3C(C)(CCC(=O)Nc2c(O)ccc(C(=O)O)c2O)C1=O` (stereo not drawn) [B5], the MIC against MSSA 1, against MRSA 3, in the assay on S. aureus ATCC 29213, against MRSA 4 and against MSSA 2 was 1 µg/mL (≈ 1.87 µM) in each case.

Take `CC12CC34C=C(C#CC5(O)CCCCC5)C(=O)C(C)(CCC(=O)Nc5c(O)ccc(C(=O)O)c5O)C3C(CC1C4)O2` (stereo not drawn) [B6]: the MIC in the assay on MSSA 1, in the assay with MRSA 3, with S. aureus ATCC 29213, with MRSA 4 and in the assay on MSSA 2 was 4 µg/mL (≈ 7.1 µM) throughout.

As for `CC12CC34C=C(C#Cc5ccccc5)C(=O)C(C)(CCC(=O)Nc5c(O)ccc(C(=O)O)c5O)C3C(CC1C4)O2` (stereo not drawn) [B7], the MIC against MSSA 1, with MRSA 3, with S. aureus ATCC 29213, against MRSA 4 and in the assay on MSSA 2 was 1 µg/mL (≈ 1.85 µM) throughout.

For the compound `CC12CC34C=C(C#Cc5cccc(N)c5)C(=O)C(C)(CCC(=O)Nc5c(O)ccc(C(=O)O)c5O)C3C(CC1C4)O2` (stereo not drawn) [B9], the MIC in the assay with MSSA 1, against MRSA 3, with S. aureus ATCC 29213, with MRSA 4 and against MSSA 2 was 1 µg/mL (≈ 1.8 µM) throughout.

Turning to `Cc1ccc(C#CC2=CC34CC5CC(OC5(C)C3)C4C(C)(CCC(=O)Nc3c(O)ccc(C(=O)O)c3O)C2=O)cc1` (stereo not drawn) [B10], the MIC was 4 µg/mL (≈ 7.2 µM) with MSSA 1; 8 µg/mL (≈ 14.4 µM) in the assay with MRSA 3; 8 µg/mL (≈ 14.4 µM) in the assay on S. aureus ATCC 29213; 4 µg/mL (≈ 7.2 µM) in the assay with MRSA 4; 4 µg/mL (≈ 7.2 µM) in the assay on MSSA 2.

Turning to `CCc1ccc(C#CC2=CC34CC5CC(OC5(C)C3)C4C(C)(CCC(=O)Nc3c(O)ccc(C(=O)O)c3O)C2=O)cc1` (stereo not drawn) [B11], the MIC against MSSA 1, with MRSA 3, with S. aureus ATCC 29213, in the assay on MRSA 4 and against MSSA 2 was 1 µg/mL (≈ 1.76 µM) each time.

With `CCCCc1ccc(C#CC2=CC34CC5CC(OC5(C)C3)C4C(C)(CCC(=O)Nc3c(O)ccc(C(=O)O)c3O)C2=O)cc1` (stereo not drawn) [B12], the MIC with MSSA 1, against MRSA 3, against S. aureus ATCC 29213, against MRSA 4 and against MSSA 2 was 8 µg/mL (≈ 13.4 µM) each time.

Take `COc1ccc(C#CC2=CC34CC5CC(OC5(C)C3)C4C(C)(CCC(=O)Nc3c(O)ccc(C(=O)O)c3O)C2=O)cc1` (stereo not drawn) [B13]: the MIC with MSSA 1, in the assay on MRSA 3, with S. aureus ATCC 29213, against MRSA 4 and against MSSA 2 was 1 µg/mL (≈ 1.75 µM) each time.

For `CC12CC34C=C(C#Cc5ccc(F)cc5)C(=O)C(C)(CCC(=O)Nc5c(O)ccc(C(=O)O)c5O)C3C(CC1C4)O2` (stereo not drawn) [B14], the MIC in the assay with MSSA 1, in the assay with MRSA 3, against S. aureus ATCC 29213, against MRSA 4 and against MSSA 2 was 1 µg/mL (≈ 1.79 µM) in each case.

On to `CC12CC34C=C(C#Cc5ccc(Cl)cc5)C(=O)C(C)(CCC(=O)Nc5c(O)ccc(C(=O)O)c5O)C3C(CC1C4)O2` (stereo not drawn) [B15], for which the MIC with MSSA 1, against MRSA 3, in the assay on S. aureus ATCC 29213, against MRSA 4 and in the assay with MSSA 2 was 1 µg/mL (≈ 1.74 µM) throughout.

Take `CC(=O)C1=C(C)OC(Cc2ccccc2)=C2C(=O)C(C)(CCC(=O)Nc3c(O)ccc(C(=O)O)c3O)C3C4CC5CC3(CC5(C)O4)C12` (stereo not drawn) [C1]: the MIC in the assay on MSSA 1, with MRSA 3, in the assay with S. aureus ATCC 29213, against MRSA 4 and against MSSA 2 was 16 µg/mL (≈ 24.9 µM) each time.

For `CC(=O)C1=C(C)OC(Cc2ccc(C)cc2)=C2C(=O)C(C)(CCC(=O)Nc3c(O)ccc(C(=O)O)c3O)C3C4CC5CC3(CC5(C)O4)C12` (stereo not drawn) [C2], the MIC against MSSA 1, in the assay on MRSA 3, in the assay with S. aureus ATCC 29213, against MRSA 4 and with MSSA 2 was 16 µg/mL (≈ 24.4 µM) each time.

Take `CCc1ccc(CC2=C3C(=O)C(C)(CCC(=O)Nc4c(O)ccc(C(=O)O)c4O)C4C5CC6CC4(CC6(C)O5)C3C(C(C)=O)=C(C)O2)cc1` (stereo not drawn) [C3]: the MIC against MSSA 1, in the assay with MRSA 3, against S. aureus ATCC 29213, against MRSA 4 and in the assay on MSSA 2 was 32 µg/mL (≈ 47.8 µM) throughout.

For the compound `CCCCc1ccc(CC2=C3C(=O)C(C)(CCC(=O)Nc4c(O)ccc(C(=O)O)c4O)C4C5CC6CC4(CC6(C)O5)C3C(C(C)=O)=C(C)O2)cc1` (stereo not drawn) [C4], the MIC against MSSA 1, against MRSA 3, against S. aureus ATCC 29213, against MRSA 4 and against MSSA 2 was 32 µg/mL (≈ 45.9 µM) in each case.

For the compound `CC(=O)C1=C(C)OC(Cc2cccc(F)c2)=C2C(=O)C(C)(CCC(=O)Nc3c(O)ccc(C(=O)O)c3O)C3C4CC5CC3(CC5(C)O4)C12` (stereo not drawn) [C5], the MIC in the assay on MSSA 1, in the assay on MRSA 3, in the assay on S. aureus ATCC 29213, against MRSA 4 and in the assay with MSSA 2 was 16 µg/mL (≈ 24.3 µM) in each case.

As to `CC(=O)C1=C(C)OC(Cc2ccc(Cl)cc2)=C2C(=O)C(C)(CCC(=O)Nc3c(O)ccc(C(=O)O)c3O)C3C4CC5CC3(CC5(C)O4)C12` (stereo not drawn) [C7], the MIC with MSSA 1, with MRSA 3, with S. aureus ATCC 29213, in the assay with MRSA 4 and against MSSA 2 was 32 µg/mL (≈ 47.3 µM) throughout.

In the case of `CC(=O)NC[C@H]1CN(c2ccc(N3CCOCC3)c(F)c2)C(=O)O1` [Linezolid, reference compound], the MIC against MSSA 1, in the assay with MRSA 3, with S. aureus ATCC 29213, in the assay on MRSA 4 and against MSSA 2 was 1 µg/mL (≈ 2.96 µM) throughout.

As for `CN[C@H](CC(C)C)C(=O)N[C@H]1C(=O)N[C@@H](CC(N)=O)C(=O)N[C@H]2C(=O)N[C@H]3C(=O)N[C@H](C(=O)N[C@H](C(=O)O)c4cc(O)cc(O)c4-c4cc3ccc4O)[C@H](O)c3ccc(c(Cl)c3)Oc3cc2cc(c3O[C@@H]2O[C@H](CO)[C@@H](O)[C@H](O)[C@H]2O[C@H]2C[C@](C)(N)[C@H](O)[C@H](C)O2)Oc2ccc(cc2Cl)[C@H]1O` [vancomycin, reference compound], in the assay on MRSA, the “survival of infected mice” value is on record as 100%.
